Data reported in patent publication EP4509511A1, “SUBSTITUTED SPIRO-ISOXAZOLINYL LACTAMS, SALTS THEREOF AND THEIR USE AS HERBICIDALLY ACTIVE SUBSTANCES” (Bayer Aktiengesellschaft, priority 2023, dated 2025).

Assays:
[1] = system: ECHCG; assay: Herbicidal post-emergence action - Part I; type: in vivo, Echinochloa crus-galli; details: one-leaf stage, rated visually after about 3 weeks vs untreated controls
Outline: (§1)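 Activity was scored visually as % damage (100% = dead, 0% = like untreated) about 3 weeks after treatment. Plants at the one-leaf stage, 2-3 weeks old, were sprayed with WP/EC formulations plus 0.5% additive (600 L/ha water, up to 1280 g/ha). Plants were grown in sandy loam in a greenhouse.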

[2] = system: ALOMY; assay: Herbicidal post-emergence action - Part I; type: in vivo, Alopecurus myosuroides; details: one-leaf stage, rated visually after about 3 weeks vs untreated controls
Method: (§2) Seeds of mono- and dicotyledonous weed plants were placed in plastic pots in sandy loam soil (doubly sown with in each case one species of mono- or dicotyledonous weed plants per pot), covered with soil and cultivated in a greenhouse under controlled growth conditions. 2 to 3 weeks after sowing, the test plants were treated at the one-leaf stage. The compounds of the invention, formulated in the form of wettable powders (WP) or as emulsion concentrates (EC), were applied onto the green parts of the plants as aqueous suspension or emulsion with addition of 0.5% additive at a water application rate of 600 liters per hectare (converted). After the test plants had been kept in the greenhouse under optimum growth conditions for about 3 weeks, the activity of the preparations was rated visually in comparison to untreated controls. For example, 100% activity = the plants have died, 0% activity = like control plants. Tables B1 to B12, below, show the effects of selected compounds of the general formula (I) according to table 1 on various harmful plants and an application rate corresponding to 1280 g/ha or below obtained by the experimental procedure mentioned above. Table B1a: post-emergence activity at 1280g/ha against ABUTH in %

[3] = system: VIOTR; assay: Herbicidal post-emergence action - Part II; type: in vivo, Viola tricolor; details: 320 g/ha; Table E9c
Outline: (§3)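 Post-emergence greenhouse test: weeds and crops in sandy loam sprayed at single-leaf stage, 2–3 weeks after sowing, with WP or EC formulations in water plus 0.5% additive at 600 l water/ha. Rates 320 g/ha or below. Visual rating after ca. 3 weeks versus untreated controls, % effect (100% = plants dead).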

[4] = system: SETVI; assay: Herbicidal post-emergence action - Part I; type: in vivo, Setaria viridis; details: one-leaf stage, rated visually after about 3 weeks vs untreated controls
Method: as §2

[5] = system: ABUTH; assay: Herbicidal pre-emergence action - Part II; type: in vivo, Abutilon theophrasti; details: visual grading after ca. 3 weeks vs untreated controls
From the text: (§4) Seeds of mono- and dicotyledonous weed plants and crop plants were sown, in plastic or organic planting pots, in sandy loam and covered with soil. The compounds according to the invention, formulated in the form of wettable powders (WP) or as emulsifiable concentrates (EC), were applied to the surface of the covering soil as aqueous suspension or emulsion, with the addition of 0.5% of an additive, at an application rate of 600 1 of water/ha (converted). Following treatment, the pots were placed in a greenhouse and kept under optimum growth conditions for the test plants. The visual grading of the damage to the test plants was carried out after ca. 3 weeks in comparison to untreated controls (herbicidal effect in percent (%): 100% effect = plants have died off, 0% effect = as control plants). Tables C1 to C12 below show the effects of selected compounds of the general formula (I) according to table 1 on various harmful plants and an application rate corresponding to 320 g/ha or below obtained by the experimental procedure mentioned above. Table C1: pre-emergence activity at 320g/ha against ABUTH in %

[6] = system: MATIN; assay: Herbicidal pre-emergence action - Part II; type: in vivo, Matricaria inodora; details: 320 g/ha; Table C8
From the text: as §4

[7] = system: DIGSA; assay: Herbicidal post-emergence action - Part I; type: in vivo, Digitaria sanguinalis; details: one-leaf stage, rated visually after about 3 weeks vs untreated controls
Method: as §2

[8] = system: AVEFA; assay: Herbicidal pre-emergence action - Part II; type: in vivo, Avena fatua; details: 320 g/ha; Table C4
From the text: as §4

[9] = system: ABUTH; assay: Herbicidal post-emergence action - Part I; type: in vivo, Abutilon theophrasti; details: 1280 g/ha, one-leaf stage, rated visually after about 3 weeks vs untreated controls
Outline: as §1

[10] = system: POLCO; assay: Herbicidal pre-emergence action - Part II; type: in vivo, Polygonum convolvulus; details: 320 g/ha; Table C9
From the text: as §4

[11] = system: VERPE; assay: Herbicidal pre-emergence action - Part II; type: in vivo, Veronica persica
From the text: as §4

[12] = system: LOLRI; assay: Herbicidal pre-emergence action - Part I; type: in vivo, Lolium rigidum; details: visual grading after ca. 3 weeks vs untreated controls
From the text: Seeds of mono- and dicotyledonous weed plants were sown in plastic pots (double sowings with one species of mono- and one species of dicotyledonous weed plants per pot), in sandy loam, and covered with soil. The compounds according to the invention, formulated in the form of wettable powders (WP) or as emulsifiable concentrates (EC), were applied to the surface of the covering soil as aqueous suspension or emulsion, with the addition of 0.5% of an additive, at an application rate of 600 1 of water per hectare (converted). Following treatment, the pots were placed in a greenhouse and kept under optimum growth conditions for the test plants. The visual grading of the damage to the test plants was carried out after ca. 3 weeks in comparison to untreated controls (herbicidaleffectinpercent(%):100%effect=plantshavediedoff,0%effect=ascontrolplants). [formula]
Tables A1 to A12, below, show the effects of selected compounds of the general formula (I) according to table 1 on various harmful plants and an application rate corresponding to 1280 g/ha or below obtained by the experimental procedure mentioned above. Table A1: pre-emergence activity at 1280g/ha against ABUTH in %

[13] = system: ECHCG; assay: Herbicidal post-emergence action - Part II; type: in vivo, Echinochloa crus-galli; details: 320 g/ha; Table E3b
From the text: Seeds of mono- and dicotyledonous weed plants and crop plants were sown, in plastic or organic planting pots, in sandy loam, covered with soil and grown in a greenhouse under controlled growth conditions. 2 to 3 weeks after sowing, the test plants were sprayed in the single-leaf stage. The compounds according to the invention, formulated in form of wettable powders (WP) or as emulsifiable concentrates (EC), were sprayed onto the green plant parts as aqueous suspension or emulsion, with the addition of 0.5% of an additive, at an application rate of 600 1 of water/ha (converted). The test plants were placed in the greenhouse for ca. 3 weeks under optimum growth conditions, and then the effect of the preparations was assessed visually in comparison with untreated controls (herbicidal effect in percent (%): 100% effect = plants have died off, 0% effect = as control plants). Tables E1 to E10 below show the effects of selected compounds of the general formula (I) according to table 1 on various harmful plants and an application rate corresponding to 320 g/ha or below obtained by the experimental procedure mentioned above. Table E1a: post-emergence activity at 5g/ha against ABUTH in %

[14] = system: ABUTH; assay: Herbicidal post-emergence action - Part II; type: in vivo, Abutilon theophrasti; details: 320 g/ha; Table E1c
Outline: as §3

Cc1ccsc1C1=NOC2(CCCN(Cc3c(F)cccc3F)C2=O)C1 (racemic) [Compound I-2] was tested, and the “post-emergence activity at 320g/ha against ECHCG in %” value ([1]; 320 g/ha) was 90%, the “post-emergence activity at 1280g/ha against ECHCG in %” value ([1]; 1280 g/ha) was 90% and the “post-emergence activity at 1280g/ha against ALOMY in %” value [2] was 90%. The “post-emergence activity against VIOTR” value [3] was 80%, the “post-emergence activity at 80g/ha against SETVI in %” value ([4]; 80 g/ha) was 90% and the “post-emergence activity at 320g/ha against SETVI in %” value ([4]; 320 g/ha) was 90%. For the same compound, the “post-emergence activity at 1280g/ha against SETVI in %” value ([4]; 1280 g/ha) was 90%, the “pre-emergence activity at 320g/ha against ABUTH in %” value [5] was 80% and the “pre-emergence activity against MATIN” value [6] was 90%. For the same compound, the “post-emergence activity at 320g/ha against DIGSA in %” value ([7]; 320 g/ha) was 90%, the “post-emergence activity at 1280g/ha against DIGSA in %” value ([7]; 1280 g/ha) was 90% and the “pre-emergence activity against AVEFA” value [8] was 80%. The “post-emergence activity at 1280g/ha against ABUTH in %” value [9] was 90%, the “pre-emergence activity against POLCO” value [10] was 80% and the “pre-emergence activity against VERPE” value ([11]; 80 g/ha, Table C11b) was 90%. For the same compound, the “pre-emergence activity against VERPE” value ([11]; 320 g/ha, Table C11a) was 90%, the “pre-emergence activity at 320g/ha against LOLRI in %” value ([12]; 320 g/ha) was 100% and the “pre-emergence activity at 1280g/ha against LOLRI in %” value ([12]; 1280 g/ha) was 100%. For the same compound, the “post-emergence activity against ECHCG” value [13] was 90% and the “post-emergence activity against ABUTH” value [14] was 80%.
